PubChem BioAssay (NCI)
“And” between values parts separate entries of the source, which are not always exact repeats. Equal entries are not always repeated.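 Five compound concentrations were applied to cells in 96-well plates for 48 hours; endpoints were derived by simple linear interpolation of the resulting dose-response curve. GI50 marks 50% less growth. TGI: total growth inhibition.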 Where a SMILES comes first, the peptide text is derived from it. The star is where a group is joined. Fmoc = O=C(OCC1c2ccccc2-c2ccccc21)*; Boc = CC(C)(C)OC(=O)*; OtBu = CC(C)(C)O*

How the values were obtained:
Assay in all cases: NCI-60 cell line screen, 48 h
UACC-62 melanoma = system: UACC-62 melanoma
MALME-3M melanoma = system: MALME-3M melanoma
ACHN renal = system: ACHN renal
KM12 colon = system: KM12 colon
SF-268 CNS = system: SF-268 CNS
OVCAR-5 ovarian = system: OVCAR-5 ovarian
U251 CNS = system: U251 CNS
OVCAR-3 ovarian = system: OVCAR-3 ovarian
NCI/ADR-RES ovarian = system: NCI/ADR-RES ovarian
UACC-257 melanoma = system: UACC-257 melanoma
NCI-H226 lung = system: NCI-H226 lung
OVCAR-4 ovarian = system: OVCAR-4 ovarian
EKVX NSCLC = system: EKVX NSCLC
NCI-H23 lung = system: NCI-H23 lung
LOX IMVI melanoma = system: LOX IMVI melanoma
MDA-MB-231 breast = system: MDA-MB-231 breast
SR leukemia = system: SR leukemia
MDA-MB-435 = system: MDA-MB-435
HCC-2998 colon = system: HCC-2998 colon
HCT-116 colon = system: HCT-116 colon
A498 renal = system: A498 renal
HOP-62 NSCLC = system: HOP-62 NSCLC
A549 NSCLC = system: A549 NSCLC
DU-145 prostate = system: DU-145 prostate
PC-3 prostate = system: PC-3 prostate
SN12C renal = system: SN12C renal
HCT-15 colon = system: HCT-15 colon
SNB-19 CNS = system: SNB-19 CNS
RPMI-8226 leukemia = system: RPMI-8226 leukemia
MOLT-4 leukemia = system: MOLT-4 leukemia
HL-60(TB) leukemia = system: HL-60(TB) leukemia
SW-620 colon = system: SW-620 colon
SK-MEL-5 melanoma = system: SK-MEL-5 melanoma
NCI-H522 lung = system: NCI-H522 lung
COLO 205 colon = system: COLO 205 colon
HT29 colon = system: HT29 colon
CCRF-CEM leukemia = system: CCRF-CEM leukemia
SK-MEL-28 melanoma = system: SK-MEL-28 melanoma
SK-MEL-2 melanoma = system: SK-MEL-2 melanoma
NCI-H460 lung = system: NCI-H460 lung
RXF 393 renal = system: RXF 393 renal
BT-549 breast = system: BT-549 breast
SK-OV-3 ovarian = system: SK-OV-3 ovarian
786-0 renal = system: 786-0 renal
TK-10 renal = system: TK-10 renal
UO-31 renal = system: UO-31 renal
HOP-92 NSCLC = system: HOP-92 NSCLC
OVCAR-8 ovarian = system: OVCAR-8 ovarian
MDA-N = system: MDA-N
SF-539 CNS = system: SF-539 CNS
HS 578T breast = system: HS 578T breast
M14 melanoma = system: M14 melanoma
IGROV1 ovarian = system: IGROV1 ovarian
T-47D breast = system: T-47D breast
MCF7 breast = system: MCF7 breast
SF-295 CNS = system: SF-295 CNS
K-562 leukemia = system: K-562 leukemia
CAKI-1 renal = system: CAKI-1 renal
SNB-75 CNS = system: SNB-75 CNS

`COC(=O)/C(=C(\C)NC(C)=O)c1c(C(=O)OC)[nH]c2ccccc12` gave a TGI (UACC-62 melanoma) greater than 100 µM, a TGI (MALME-3M melanoma) greater than 100 µM and a TGI (ACHN renal) greater than 100 µM. It also gave a TGI (KM12 colon) greater than 100 µM, a TGI (SF-268 CNS) greater than 100 µM and a TGI (OVCAR-5 ovarian) greater than 100 µM. It also gave a TGI (U251 CNS) greater than 100 µM, a TGI (OVCAR-3 ovarian) greater than 100 µM and a TGI (NCI/ADR-RES ovarian) greater than 100 µM. For the same molecule, the TGI (UACC-257 melanoma) was greater than 100 µM, the TGI (NCI-H226 lung) was greater than 100 µM and the TGI (OVCAR-4 ovarian) was greater than 100 µM. The TGI (EKVX NSCLC) was greater than 100 µM, the TGI (NCI-H23 lung) was greater than 100 µM and the TGI (LOX IMVI melanoma) was greater than 100 µM. It also gave a TGI (MDA-MB-231 breast) greater than 100 µM, a TGI (SR leukemia) greater than 100 µM and a TGI (MDA-MB-435) greater than 100 µM. It also gave a TGI (HCC-2998 colon) greater than 100 µM, a TGI (HCT-116 colon) greater than 100 µM and a TGI (A498 renal) greater than 100 µM. The TGI (HOP-62 NSCLC) was greater than 100 µM, the TGI (A549 NSCLC) was greater than 100 µM and the TGI (DU-145 prostate) was greater than 100 µM. It also gave a TGI (PC-3 prostate) greater than 100 µM, a TGI (SN12C renal) greater than 100 µM and a TGI (HCT-15 colon) greater than 100 µM. For the same molecule, the TGI (SNB-19 CNS) was greater than 100 µM, the TGI (RPMI-8226 leukemia) was greater than 100 µM and the TGI (MOLT-4 leukemia) was greater than 100 µM. The TGI (HL-60(TB) leukemia) was greater than 100 µM, the TGI (SW-620 colon) was greater than 100 µM and the TGI (SK-MEL-5 melanoma) was greater than 100 µM. The TGI (NCI-H522 lung) was greater than 100 µM, the TGI (COLO 205 colon) was greater than 100 µM and the TGI (HT29 colon) was greater than 100 µM. For the same molecule, the TGI (CCRF-CEM leukemia) was greater than 100 µM, the TGI (SK-MEL-28 melanoma) was greater than 100 µM and the TGI (SK-MEL-2 melanoma) was greater than 100 µM. The TGI (NCI-H460 lung) was greater than 100 µM, the TGI (RXF 393 renal) was greater than 100 µM and the TGI (BT-549 breast) was greater than 100 µM. For the same molecule, the TGI (SK-OV-3 ovarian) was greater than 100 µM, the TGI (786-0 renal) was greater than 100 µM and the TGI (TK-10 renal) was greater than 100 µM. It also gave a TGI (UO-31 renal) greater than 100 µM, a TGI (HOP-92 NSCLC) greater than 100 µM and a TGI (OVCAR-8 ovarian) greater than 100 µM. It also gave a TGI (MDA-N) greater than 100 µM, a TGI (SF-539 CNS) greater than 100 µM and a TGI (HS 578T breast) greater than 100 µM. For the same molecule, the TGI (M14 melanoma) was greater than 100 µM, the TGI (IGROV1 ovarian) was greater than 100 µM and the TGI (T-47D breast) was greater than 100 µM. The TGI (MCF7 breast) was greater than 100 µM, the TGI (SF-295 CNS) was greater than 100 µM and the TGI (K-562 leukemia) was greater than 100 µM. It also gave a TGI (CAKI-1 renal) greater than 100 µM.

`CC(C)(C)OC(=O)CCC(NC(=O)OCC1c2ccccc2-c2ccccc21)C(=O)NC(Cc1c[nH]c2ccccc12)C(=O)NC(CCCCNC(=O)OC(C)(C)C)C(=O)N1CCCC1C(=O)NCC(N)=O` (configuration not stated) (Fmoc-E(OtBu)WK(Boc)PG-NH2; configuration not given here) was tested, and the TGI (UACC-62 melanoma) was 28.2 µM and 39.9 µM, the TGI (MALME-3M melanoma) was 33.9 µM and 78.9 µM and the TGI (ACHN renal) was 30 µM and 35 µM. For the same molecule, the GI50 (KM12 colon) was 16.2 µM and 35.9 µM, the TGI (KM12 colon) was 33.1 µM and > 100 µM and the GI50 (SF-268 CNS) was 21.5 µM and 44.7 µM. The TGI (SF-268 CNS) was 37.2 µM and > 100 µM, the TGI (SNB-75 CNS) was 52.1 µM and 29.9 µM and the GI50 (OVCAR-5 ovarian) was 45.6 µM and > 100 µM. The TGI (OVCAR-5 ovarian) was greater than 100 µM, the TGI (U251 CNS) was 31.1 µM and 31 µM and the TGI (OVCAR-3 ovarian) was 37.4 µM and 51 µM. For the same molecule, the GI50 (NCI/ADR-RES ovarian) was 16.9 µM and 68.5 µM, the TGI (NCI/ADR-RES ovarian) was 30.6 µM and > 100 µM and the GI50 (UACC-257 melanoma) was 40.4 µM and 94.9 µM. For the same molecule, the TGI (UACC-257 melanoma) was greater than 100 µM, the GI50 (NCI-H226 lung) was 15.3 µM and 78.8 µM and the TGI (NCI-H226 lung) was 32.5 µM and > 100 µM. The TGI (OVCAR-4 ovarian) was 25.5 µM and 31.2 µM, the GI50 (EKVX NSCLC) was 17.9 µM and > 100 µM and the TGI (EKVX NSCLC) was 34.8 µM and > 100 µM. The GI50 (NCI-H23 lung) was 14.2 µM and 32.7 µM, the TGI (NCI-H23 lung) was 27.2 µM and > 100 µM and the TGI (LOX IMVI melanoma) was 24.5 µM and 44.7 µM. For the same molecule, the TGI (MDA-MB-231 breast) was 25.2 µM and 28.9 µM, the TGI (SR leukemia) was 52.7 µM and > 100 µM and the GI50 (MDA-MB-435) was 18 µM and 42.7 µM. The TGI (MDA-MB-435) was 31.9 µM and > 100 µM, the TGI (HCC-2998 colon) was greater than 100 µM and the GI50 (HCT-116 colon) was 18.3 µM and 48.1 µM. For the same molecule, the TGI (HCT-116 colon) was 32.2 µM and > 100 µM, the GI50 (HOP-62 NSCLC) was 18 µM and 42.2 µM and the TGI (HOP-62 NSCLC) was 31.8 µM and > 100 µM. The GI50 (A549 NSCLC) was 17.6 µM and > 100 µM, the TGI (A549 NSCLC) was 31.5 µM and > 100 µM and the GI50 (DU-145 prostate) was 16.1 µM and > 100 µM. The TGI (DU-145 prostate) was 29.6 µM and > 100 µM, the GI50 (PC-3 prostate) was 16.4 µM and > 100 µM and the TGI (PC-3 prostate) was 29.9 µM and > 100 µM. The GI50 (SN12C renal) was 18.3 µM and 67.4 µM, the TGI (SN12C renal) was 32.2 µM and > 100 µM and the GI50 (HCT-15 colon) was 12.5 µM and 73.9 µM. For the same molecule, the TGI (HCT-15 colon) was 24.9 µM and > 100 µM, the TGI (SNB-19 CNS) was 72.9 µM and 40.6 µM and the TGI (RPMI-8226 leukemia) was 35.6 µM and > 100 µM. For the same molecule, the TGI (MOLT-4 leukemia) was 61.7 µM and 81.7 µM, the GI50 (HL-60(TB) leukemia) was 3.8 µM and 33.5 µM and the TGI (HL-60(TB) leukemia) was greater than 100 µM. The GI50 (SW-620 colon) was 19 µM and 46.9 µM, the TGI (SW-620 colon) was 33.6 µM and > 100 µM and the TGI (SK-MEL-5 melanoma) was 29.7 µM and > 100 µM. For the same molecule, the TGI (NCI-H522 lung) was 4.16 µM, the GI50 (COLO 205 colon) was 17.1 µM and 41.9 µM and the TGI (COLO 205 colon) was 32.7 µM and > 100 µM. For the same molecule, the TGI (HT29 colon) was greater than 100 µM, the GI50 (CCRF-CEM leukemia) was 67.3 µM and 31.5 µM and the TGI (CCRF-CEM leukemia) was > 100 µM and 73.7 µM. For the same molecule, the TGI (SK-MEL-28 melanoma) was greater than 100 µM, the TGI (SK-MEL-2 melanoma) was 39.2 µM and 33.5 µM and the TGI (NCI-H460 lung) was 30.4 µM and 68.9 µM. The TGI (RXF 393 renal) was 28.3 µM and 50.4 µM, the TGI (BT-549 breast) was 29.5 µM and 38.3 µM and the TGI (SK-OV-3 ovarian) was > 100 µM and 93.9 µM. The TGI (786-0 renal) was 31.3 µM and 34.9 µM, the GI50 (TK-10 renal) was 36.5 µM and > 100 µM and the TGI (TK-10 renal) was greater than 100 µM. For the same molecule, the GI50 (UO-31 renal) was 3.85 µM and 14.4 µM, the TGI (UO-31 renal) was 14.7 µM and 28.1 µM and the TGI (HOP-92 NSCLC) was 31.4 µM and 35.7 µM. The TGI (OVCAR-8 ovarian) was 33.4 µM and > 100 µM, the TGI (MDA-N) was 31.6 µM and > 100 µM and the TGI (SF-539 CNS) was greater than 100 µM. For the same molecule, the TGI (HS 578T breast) was 59.3 µM and 76.1 µM, the TGI (M14 melanoma) was 90.5 µM and > 100 µM and the TGI (IGROV1 ovarian) was 29.5 µM and > 100 µM. It also gave a TGI (T-47D breast) greater than 100 µM, a TGI (MCF7 breast) greater than 100 µM and a TGI (SF-295 CNS) greater than 100 µM. The TGI (K-562 leukemia) was greater than 100 µM.
